Source: US10640506B2, “Cyclobutyl substituted pyrrolopyridine and pyrrolopyrimidines derivatives as JAK inhibitors” (Incyte Corporation, priority 2010, dated 2020)
Structures can show the parent of a compound that is named as a salt. Where two headings read alike, the source gives them in different places.

Experiments:
JAK2 (a.a. 828-1132) = biological target: T1, JAK2 (a.a. 828-1132) (Homo sapiens, UniProt O60674); assay: In vitro JAK kinase assay (HTRF, phosphorylation of biotinylated peptide), JAK2; format: biochemical
T1 construct: JAK2 (a.a. 828-1132); His tag (N)
T1 sequence (O60674 828-1132): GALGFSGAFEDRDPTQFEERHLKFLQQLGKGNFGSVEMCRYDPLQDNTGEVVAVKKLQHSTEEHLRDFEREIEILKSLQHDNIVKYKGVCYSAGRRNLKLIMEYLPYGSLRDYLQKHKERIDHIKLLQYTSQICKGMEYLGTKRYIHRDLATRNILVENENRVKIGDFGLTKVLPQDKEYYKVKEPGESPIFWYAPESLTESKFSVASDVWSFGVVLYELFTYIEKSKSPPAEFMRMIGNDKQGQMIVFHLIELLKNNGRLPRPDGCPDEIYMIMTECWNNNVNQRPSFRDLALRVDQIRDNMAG
Method in brief: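 HTRF detection (Eu-Py20, SA-APC, 40 min) of biotinylated-peptide phosphorylation, following a 1 hour room-temperature reaction quenched with 45 mM EDTA. Enzymes: insect-cell-expressed N-terminal His-tagged JAK1 (837-1142) and JAK2 (828-1132) catalytic domains. Activities reported in ranged categories.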

[1] = biological target: human JAK1 (a.a. 837-1142) (Homo sapiens, UniProt P23458); assay: In vitro JAK kinase assay (HTRF, phosphorylation of biotinylated peptide), JAK1; format: biochemical
Sequence of human JAK1 (a.a. 837-1142) (P23458 849-1154): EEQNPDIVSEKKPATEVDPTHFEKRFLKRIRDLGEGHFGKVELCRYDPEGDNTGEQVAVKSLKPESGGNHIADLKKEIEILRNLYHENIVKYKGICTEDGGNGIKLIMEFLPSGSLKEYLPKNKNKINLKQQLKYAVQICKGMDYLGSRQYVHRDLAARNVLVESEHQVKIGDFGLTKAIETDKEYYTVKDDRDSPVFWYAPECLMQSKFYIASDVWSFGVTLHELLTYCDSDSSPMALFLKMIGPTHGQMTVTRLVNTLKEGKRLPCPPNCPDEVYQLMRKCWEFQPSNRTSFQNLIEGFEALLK
Method in brief: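 Phosphorylation of a biotinylated peptide was run at room temperature for 1 hour using the N-terminally His-tagged JAK1 kinase domain (837-1142) from insect cells. After an EDTA stop, Eu-Py20 and SA-APC gave an HTRF read; values are binned potency ranges.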

[2] = read-out: JAK2 IC50 (nM) at 1 mM ATP, Table F
[3] = read-out: JAK1 IC50 (nM) at 1 mM ATP, Table F

N#CC[C@]1(n2cc(-c3ncnc4[nH]ccc34)cn2)C[C@H](N2CCN(C(=O)c3cc(CNC4CCC4)nc(C(F)(F)F)n3)CC2)C1 [Example 56, {trans-3-(4-{[6-[(cyclobutylamino)methyl]-2-(trifluoromethyl)pyrimidin-4-yl]carbonyl}piperazin-1-yl)-1-[4-(7H-pyrrolo[2,3-d]pyrimidin-4-yl)-1H-pyrazol-1-yl]cyclobutyl}acetonitrile]
IC50 (JAK2 (a.a. 828-1132); Table F, 1 mM ATP): 25 to 100 nM
IC50 ([1]; Table F, 1 mM ATP): < 10 nM

N#CC[C@]1(n2cc(-c3ncnc4[nH]ccc34)cn2)C[C@@H](N2CCN(C(=O)c3cc(F)cnc3Cl)CC2)C1 [Example 9a, {cis-3-{4-[(2-chloro-5-fluoropyridin-3-yl)carbonyl]piperazin-1-yl}-1-[4-(7H-pyrrolo[2,3-d]pyrimidin-4-yl)-1H-pyrazol-1-yl]cyclobutyl}acetonitrile]
IC50 (JAK2 (a.a. 828-1132); Table A, 1 mM ATP, read-out: JAK2 IC50): > 100 nM
IC50 ([1]; Table A, 1 mM ATP, read-out: JAK1 IC50): 10 to 25 nM

C[C@H](NC(=O)N1CCN([C@H]2C[C@](CC#N)(n3cc(-c4ncnc5[nH]ccc45)cn3)C2)CC1)C(F)(F)F [Example 114, 4-{trans-3-(cyanomethyl)-3-[4-(7H-pyrrolo[2,3-d]pyrimidin-4-yl)-1H-pyrazol-1-yl]cyclobutyl}-N-[(1S)-2,2,2-trifluoro-1-methylethyl]piperazine-1-carboxamide]
IC50 (JAK2 (a.a. 828-1132); Table F, 1 mM ATP): > 100 nM
IC50 ([1]; Table F, 1 mM ATP): < 10 nM

C[C@@H](NC(=O)N1CCN([C@H]2C[C@](CC#N)(n3cc(-c4ncnc5[nH]ccc45)cn3)C2)CC1)C1CC1 [Example 97, 4-{trans-3-(cyanomethyl)-3-[4-(7H-pyrrolo[2,3-d]pyrimidin-4-yl)-1H-pyrazol-1-yl]cyclobutyl}-N-[(1R)-1-cyclopropylethyl]piperazine-1-carboxamide]
IC50 (JAK2 (a.a. 828-1132); Table F, 1 mM ATP): 25 to 100 nM
IC50 ([1]; Table F, 1 mM ATP): < 10 nM

{cis-3-(4-{[6-(1-hydroxy-1-methylethyl)-2-(trifluoromethyl)pyrimidin-4-yl]carbonyl}piperazin-1-yl)-1-[4-(1H-pyrrolo[2,3-b]pyridin-4-yl)-1H-pyrazol-1-yl]cyclobutyl}acetonitrile [Example 77]
IC50 (JAK2 (a.a. 828-1132); [2]): 25 to 100 nM
IC50 [1, 3]: < 10 nM

N#CC[C@]1(n2cc(-c3ncnc4[nH]ccc34)cn2)C[C@H](N2CCN(C(=O)c3cc(F)cnc3Cl)CC2)C1 [Example 9b, {trans-3-{4-[(2-chloro-5-fluoropyridin-3-yl)carbonyl]piperazin-1-yl}-1-[4-(7H-pyrrolo[2,3-d]pyrimidin-4-yl)-1H-pyrazol-1-yl]cyclobutyl}acetonitrile]
IC50 (JAK2 (a.a. 828-1132); Table B, 1 mM ATP, read-out: JAK2 IC50): 10 to 25 nM
IC50 ([1]; Table B, 1 mM ATP, read-out: JAK1 IC50): < 10 nM

CC(C)(O)c1cc(OC2CCN([C@H]3C[C@@](CC#N)(n4cc(-c5ncnc6[nH]ccc56)cn4)C3)CC2)nc(C(F)(F)F)c1 (single isomer, unassigned) [Example 126, {cis-3-(4-{[4-(1-hydroxy-1-methylethyl)-6-(trifluoromethyl)pyridin-2-yl]oxy}piperidin-1-yl)-1-[4-(7H-pyrrolo[2,3-d]pyrimidin-4-yl)-1H-pyrazol-1-yl]cyclobutyl}acetonitrile]
IC50 (JAK2 (a.a. 828-1132); Table F, 1 mM ATP): > 100 nM
IC50 ([1]; Table F, 1 mM ATP): 10 to 25 nM

N#CC[C@]1(n2cc(-c3ncnc4[nH]ccc34)cn2)C[C@H](N2CCN(C(=O)NCC3CC3)CC2)C1 [Example 92, 4-{trans-3-(cyanomethyl)-3-[4-(7H-pyrrolo[2,3-d]pyrimidin-4-yl)-1H-pyrazol-1-yl]cyclobutyl}-N-(cyclopropylmethyl)piperazine-1-carboxamide trifluoroacetate salt]
IC50 (JAK2 (a.a. 828-1132); Table F, 1 mM ATP): 25 to 100 nM
IC50 ([1]; Table F, 1 mM ATP): < 10 nM

3-[(4-{trans-3-(cyanomethyl)-3-[4-(7H-pyrrolo[2,3-d]pyrimidin-4-yl)-1H-pyrazol-1-yl]cyclobutyl}piperazin-1-yl)methyl]-5-[(dimethylamino)methyl]benzonitrile [Example 43]
IC50 (JAK2 (a.a. 828-1132); [2]): > 100 nM
IC50 [1, 3]: 25 to 100 nM

CC[C@H](C)NC(=O)N1CCN([C@H]2C[C@@](CC#N)(n3cc(-c4ncnc5[nH]ccc45)cn3)C2)CC1 [Example 106, 4-{cis-3-(cyanomethyl)-3-[4-(7H-pyrrolo[2,3-d]pyrimidin-4-yl)-1H-pyrazol-1-yl]cyclobutyl}-N-[(1S)-1-methylpropyl]piperazine-1-carboxamide]
IC50 (JAK2 (a.a. 828-1132); Table F, 1 mM ATP): > 100 nM
IC50 ([1]; Table F, 1 mM ATP): 10 to 25 nM
